This note sets out measurements from BindingDB's records for doi:10.1074/jbc.M109.089946 (Merck Research Laboratories, 2010).

Bounds are passed on as bounds.

For experiment [1], the target named is 3-phosphoinositide-dependent protein kinase 1 (Homo sapiens) (UniProt O15530). Kind of experiment: 384-Well TR-Fret assay using AKT-tide peptide substrate.
Experiment [2] addresses T1, 3-phosphoinositide-dependent protein kinase 1 (Homo sapiens, UniProt O15530).
T1 sequence (O15530 whole entry): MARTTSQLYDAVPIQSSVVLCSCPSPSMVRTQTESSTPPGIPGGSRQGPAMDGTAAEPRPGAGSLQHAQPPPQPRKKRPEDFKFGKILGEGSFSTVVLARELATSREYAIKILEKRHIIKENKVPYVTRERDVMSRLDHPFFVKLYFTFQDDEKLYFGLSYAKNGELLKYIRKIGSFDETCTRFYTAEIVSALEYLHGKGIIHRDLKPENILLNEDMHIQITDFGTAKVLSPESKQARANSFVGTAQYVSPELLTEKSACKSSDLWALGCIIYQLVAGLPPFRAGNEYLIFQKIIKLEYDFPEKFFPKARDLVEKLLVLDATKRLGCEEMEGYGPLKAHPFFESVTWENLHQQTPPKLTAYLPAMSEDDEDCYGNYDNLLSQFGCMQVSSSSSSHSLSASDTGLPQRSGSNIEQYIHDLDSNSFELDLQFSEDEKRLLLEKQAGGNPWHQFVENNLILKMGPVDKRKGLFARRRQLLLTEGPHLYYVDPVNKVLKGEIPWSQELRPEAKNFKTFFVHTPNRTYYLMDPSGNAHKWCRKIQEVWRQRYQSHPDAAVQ
Description: TR-Fret Assay. From the text:
1536-Well TR-Fret uHTS assay PDK1-tide1 peptide substrate.

By IC50 is commonly meant the concentration that inhibits the measured activity by half. Read a low IC50 as greater potency in that assay. Consider `Cc1[nH]nc2c1c(=O)n(CCCN)c1ccc(Br)cc21` [Compound # 1], for which the concentration for half-maximal inhibition (IC50) stood at 14 nM in experiment [1] and 11 nM in experiment [2].

For `CCCCCNC(=O)O[C@@H]1CC[C@@H]2[C@@H](C(=O)Nc3ccc(N(C)C)cc3)C[C@H]1N2CCC(C)C` [Alkaloid 2], the IC50 in experiment [1] was more than 30000 nM; in experiment [2], 18000 nM.

As for `CC(C)(C)c1nc2c3ccc(F)cc3c3c(=O)[nH]ccc3c2[nH]1` [Jak Inhibitor 1], the IC50 in experiment [1] was determined as 28 nM; in experiment [2] it was 20 nM.
